Assay results as given in PubChem BioAssay (NCI).
Several values for one entry are separate records, joined by “and”; a condition that tells them apart may be missing. Equal values may be shown once.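 Dose response: 5 concentrations. Exposure: 48 h. Format: 96-well plates. Endpoint: linear interpolation; highest concentration if not reached. GI50 = concentration required for 50% inhibition of growth. TGI marks complete inhibition of growth.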

What was measured:
Test in all cases: DTP human tumour cell line panel, 48 h
UO-31 renal = system: UO-31 renal
CAKI-1 renal = system: CAKI-1 renal
K-562 leukemia = system: K-562 leukemia
COLO 205 colon = system: COLO 205 colon
HS 578T breast = system: HS 578T breast
MOLT-4 leukemia = system: MOLT-4 leukemia
T-47D breast = system: T-47D breast
SW-620 colon = system: SW-620 colon
ACHN renal = system: ACHN renal
SF-268 CNS = system: SF-268 CNS

Row | Compound | GI50 (UO-31 renal) [µM] | TGI (UO-31 renal) | GI50 (CAKI-1 renal) | GI50 (K-562 leukemia) [µM] | TGI (K-562 leukemia) | GI50 (COLO 205 colon) [µM] | TGI (COLO 205 colon) [µM] | GI50 (HS 578T breast) [µM] | TGI (HS 578T breast) [µM] | GI50 (MOLT-4 leukemia) [µM] | TGI (MOLT-4 leukemia) | GI50 (T-47D breast) [µM] | GI50 (SW-620 colon) [µM] | TGI (SW-620 colon) | GI50 (ACHN renal) [µM] | TGI (ACHN renal) | GI50 (SF-268 CNS) [µM] | TGI (SF-268 CNS) | TGI (CAKI-1 renal) [µM] | TGI (T-47D breast) [µM]
1 | C=C1COC(O)(C2OCOC(C3CC(=O)NC(=O)C3)C2O)C1C (stereo not drawn) | 0.00204 | 0.0278 µM and 0.0215 µM | 0.00394 µM and 0.019 µM | 0.00241 | 0.0411 µM | 0.00292 | 0.0128 | 0.00428 | 0.0265 | 0.00124 | 0.00804 µM and 0.00522 µM | 0.00457 | 0.00288 | 0.042 µM and 0.142 µM | 0.00352 | 0.198 µM and 0.0355 µM | 0.00577 | 0.0423 µM and 0.033 µM |  | 
2 | O=C(O)C1C2C=CC(C2)C1C(=O)O (stereo not drawn) | > 100 | > 100 µM | > 100 µM | > 100 | > 100 µM | > 100 | > 100 | > 100 | > 100 | > 100 | > 100 µM | > 100 | > 100 | > 100 µM | > 100 | > 100 µM | > 100 | > 100 µM | > 100 | > 100
3 | C=C1CC[C@@H]2[C@](C)(COC(C)=O)[C@H](OC(C)=O)CC[C@@]2(C)[C@@H]1CC(Nc1ccc(S(=O)(=O)Nc2cc(C)on2)cc1)C1=CCOC1=O (stereo partly drawn) | 1.69 | 3.52 µM | 4.14 µM | 1.57 | 8.42 µM | 1.97 | 4.34 | 3.92 | 26.7 | 2.12 | 6.39 µM | 2.8 | 1.32 | 2.91 µM | 1.71 | 3.48 µM | 2.35 | 6.11 µM | 14.7 | 7.37
4 | CCC(C)[C@H](NC(=O)NC(=O)NC(=O)CI)C(=O)OC (stereo partly drawn) | 1.73 | 3.28 µM | 1.41 µM | 2.03 | 4.48 µM | 1.77 | 3.6 | 23.5 | 73.5 | 2.47 | 6.74 µM | 10 | 1.86 | 3.61 µM | 2.11 | 4.43 µM | 12.6 | 28.5 µM | 2.78 | 34.8
5 | CC1=C(C(=O)Nc2ccc3[nH]ncc3c2)C(c2ccc(Cl)c(Cl)c2)CC(=O)N1 (stereo not drawn) | 3.22 | > 25 µM | > 16 µM | > 25 | > 25 µM | 16.6 | > 25 | 4.29 | > 25 | > 22.9 | > 25 µM | > 25 | > 20.7 | > 25 µM | > 25 | > 25 µM | 9.62 | > 25 µM | > 25 | > 25
6 | CC1(C)CCCC(C)(C2CCC3(C)C2C(O)CC2C4(C)CCC(O)C(C)(C)C4C(O)CC23C)O1 (stereo not drawn) |  | 24.1 µM |  |  | 25.1 µM |  | 24.4 |  | 30.8 |  | 16.3 µM |  |  | 41.6 µM |  | 24.5 µM |  | 31.9 µM | 17.6 | 28.9
7 | CC(=O)c1ccc(Nc2nc(Nc3ccc(F)cc3)nc(Nc3ccc(F)cc3)n2)cc1 | 7.68 | 24.3 µM | 9.02 µM | 5.7 | > 100 µM | 5.61 | 43.7 | 4.85 | 20.2 | 4.39 | > 100 µM | 4.77 | 13.4 | 88 µM | 14.7 | 45.1 µM | 10.8 | 46.6 µM | 27.7 | 65.2
8 | N#Cc1ccsc1NC(=O)COC(=O)c1cccc(S(=O)(=O)N2CCc3ccccc32)c1 | 41.2 | > 100 µM | 42.4 µM | 21.3 | > 100 µM | 27.5 | > 100 | > 100 | > 100 | 6.68 | > 100 µM | 37.5 | 24.1 | > 100 µM | 50.5 | > 100 µM | 13.4 | > 100 µM | > 100 | > 100
9 | COc1cc(/C=C2\Oc3cc(OCCCN4CCCC4)ccc3C2=O)cc(OC)c1 | 4.76 | 18 µM | 3.54 µM | 2.3 | 7.69 µM | 2.58 | 8.3 | 5.15 | 25.6 | 2.59 | 9.19 µM | 1.93 | 3.15 | 12.4 µM | 3.13 | 10.7 µM | 6.1 | 23.9 µM | 16.4 | 4.51
10 | C/C(=N\NC(=S)N1CCN(C2CCCCCC2)CC1)c1ccccn1 | 1.35 | 3.75 µM and 1.5 µM | 0.155 µM | < 0.001 | 1.67 µM and 0.97 µM |  | 1.48 |  | 4.63 | < 0.001 | 1.52 µM and 3.72 µM |  | 0.407 | 3.83 µM and 1.91 µM | 0.00121 | 2.7 µM |  | 5.5 µM | 3.5 | 2.22
11 | O=C1CCCCC=C1C[N+](=O)[O-] | 38.2 | > 100 µM | 17.9 µM | 22.5 | > 100 µM | 11.6 | 39.7 | 41.8 | > 100 | 11.9 | 31 µM | 26.6 | 5.9 | 26.1 µM | 15.6 | 31.2 µM | 30.8 | > 100 µM | 45.8 | 88.1
12 | COC(=O)c1ccc2c(c1)C(=O)c1c-2n(C)c(=O)c2cc(OC)c(OC)cc12 | > 50 | > 50 µM | > 50 µM | > 50 | > 50 µM | > 50 | > 50 | > 50 | > 50 | > 50 | > 50 µM | > 50 | > 50 | > 50 µM | > 50 | > 50 µM | > 50 | > 50 µM | > 50 | > 50
13 | Cc1cccc2nc3cccc(C(=O)NCCNCCNCCNC(=O)c4cccc5nc6cccc(C)c6nc45)c3nc12 | 0.0238 |  | 0.0461 µM | < 0.01 | 9.37 µM | < 0.01 | 0.7 | 0.0474 | 2.24 | < 0.01 | 14.7 µM | < 0.0123 | < 0.01 | 3.5 µM | < 0.01 | 10.9 µM | < 0.01 | 1.7 µM | 23.2 | 8.67
